We go through three compounds from article PMC8815882, “Screening the pandemic response box identified benzimidazole carbamates, Olorofim and ravuconazole as promising drug candidates for the treatment of eumycetoma” (PLoS Neglected Tropical Diseases, 2022).

Values after ≈ are worked out from the molar mass of the structure shown. Read-outs that look alike come from different tables or passages of the source.

As a reminder, the IC50 is the concentration needed to halve the response being measured. Usually IC90 stands for the point of the concentration-response curve where the effect stands at 90%. As a reminder, the MIC50 is the lowest concentration that inhibits either 50% of growth or 50% of the strains tested, depending on the study. Broadly, the MIC is the lowest concentration found to suppress growth.

Assay [1] concerns M. mycetomatis genome strain MM55. Nature of the assay: CLSI M38-A2 based in vitro susceptibility screening (XTT or resazurin), growth at fixed concentration. Format: cell-based, Madurella mycetomatis. The note with it: Madurella mycetomatis.
The subject of another assay is M. mycetomatis MM55. Nature of the assay: IC50 determination, 2-fold dilution series 16 to 0.03125 μM. The assay is classed as cell-based, Madurella mycetomatis. The note with it: for IC50 / IC90: Madurella mycetomatis.
In assay [2] the test system is ten different M. mycetomatis isolates. Also on record: method as in PMID 24945848, PMID 22964246, PMID 31904836. The note with it: asterisk: determined in previous works ref 19-21; cited from earlier work.
The test system is the same in assay [3]. Nature of the assay: MIC / MIC50 determination (XTT) in ten M. mycetomatis isolates. The assay is classed as cell-based, Madurella mycetomatis. Particulars: Madurella mycetomatis.
In assay [4] the test system is M. mycetomatis isolate MM55. The assay can be described thus: M. mycetomatis grain infection model in G. mellonella larvae, survival. The assay is classed as in vivo, Galleria mellonella. Also on record: In vivo efficacy, Larvae survival %: concentration or dose not given beside the values. The note with it: G. mellonella larvae infected with M. mycetomatis.
Where [5] appears, read: mean, read-out: Percentage survival at 25um, 25 uM mean.
[6] abbreviates: replicate A, read-out: Percentage survival at 25um, 25 um A.
[7] abbreviates: replicate B, read-out: Percentage survival at 25um, 25 uM B.
[8] abbreviates: replicate C, read-out: Percentage survival at 25um, 25 uM C.
[9] abbreviates: 100 uM, mean, read-out: Percentage survival at 100um, 100 uM mean.
[10] abbreviates: 100 uM, replicate (first column), read-out: Percentage survival at 100um, 100 uM A.
Setting [11] is: 100 uM, replicate (second column), read-out: Percentage survival at 100um, 100 uM A.
The mark [12] stands for this setting: 100 uM, replicate (third column), read-out: Percentage survival at 100um, 100 uM A.
The mark [13] stands for this setting: MM55, Table 2, M. mycetomatis MM55, read-out: IC50.
The mark [14] stands for this setting: MM55, replicate 1, read-out: IC50 1.
Where [15] appears, read: MM55, replicate 1, read-out: IC90 1.
[16] abbreviates: MM55, replicate 2, read-out: IC50 2.
Where [17] appears, read: MM55, replicate 2, read-out: IC90 2.
Setting [18] is: MM55, replicate 3, read-out: IC50 3.
The mark [19] stands for this setting: MM55, replicate 3, read-out: IC90 3.

With `CC(=O)N1CCN(c2ccc(OCC3COC(Cn4ccnc4)(c4ccc(Cl)cc4Cl)O3)cc2)CC1` (stereo not shown) [MMV637533, Ketoconazole, reference compound], the activity at 25 µM in assay [1] (setting [5]) is -0.0796%; in assay [1] (setting [6]), 1.08%; in assay [1] (setting [7]) it was -3.63%; in assay [1] (setting [8]), 2.31%. The activity at 100 µM in assay [1] (setting [9]) is 5.46%; in assay [1] (setting [10]) it was 1.43%; in assay [1] (setting [11]), 7.48%; in assay [1] (setting [12]), 7.47%. Besides, the “Drug static or cidal” value in the assay with M. mycetomatis MM55 is “Cidal”. Moreover, the IC50 was 0.07 µM in the assay with M. mycetomatis MM55 (setting [13]), less than 0.098 µM in the assay on M. mycetomatis MM55 (setting [14]), less than 0.098 µM in the assay on M. mycetomatis MM55 (setting [16]) and 0.38 µM in the assay with M. mycetomatis MM55 (setting [18]). For the same compound, the IC90 is 0.18 µM with M. mycetomatis MM55 (setting [15]), less than 0.098 µM in the assay with M. mycetomatis MM55 (setting [17]) and 1.05 µM with M. mycetomatis MM55 (setting [19]). Moreover, in assay [2], the “MIC50” value is 0.13 µM (≈ 0.0691 µg/mL). In addition, in assay [2], the “MIC range” value was 0.06 to 1.9 µM.
As to `CCC(C)(C)c1ccc(CC(C)CN2C[C@@H](C)O[C@@H](C)C2)cc1` (stereo partly shown) [MMV1634358, Amorolfine, reference compound], the activity at 25 µM was 0.888% in assay [1] (mean of three, M. mycetomatis MM55, read-out: Percentage survival at 25um, 25 uM mean); -0.194% in assay [1] (replicate A, M. mycetomatis MM55, read-out: Percentage survival at 25um, 25 um A); 0.287% in assay [1] (replicate B, M. mycetomatis MM55, read-out: Percentage survival at 25um, 25 uM B); 2.57% in assay [1] (replicate C, M. mycetomatis MM55, read-out: Percentage survival at 25um, 25 uM C). Moreover, the activity at 100 µM is 8.96% in assay [1] (100 uM, mean of three, M. mycetomatis MM55, read-out: Percentage survival at 100um, 100 uM mean); 0.903% in assay [1] (100 uM, replicate 1, M. mycetomatis MM55, read-out: Percentage survival at 100um, 100 uM A (first replicate column)); 23.6% in assay [1] (100 uM, replicate 3, M. mycetomatis MM55, read-out: Percentage survival at 100um, 100 uM A (third replicate column)). Further, the Percent fungal survival at 100 µM in assay [1] (100 uM, replicate 2, M. mycetomatis MM55, read-out: Percentage survival at 100um, 100 uM A (second replicate column)) amounted to 2.35%. Also, in the assay with M. mycetomatis MM55 (M. mycetomatis), the “Drug static or cidal” value is “Static”. The concentration for half-maximal inhibition (IC50) came out at 5.72 µM with M. mycetomatis MM55 (setting [13]); 5.72 µM in the assay with M. mycetomatis MM55 (MM55, mean of replicates, read-out: IC50 mean); 2.45 µM in the assay with M. mycetomatis MM55 (MM55, replicate 1, read-out: IC50 1 um); 11.7 µM with M. mycetomatis MM55 (MM55, replicate 2, read-out: IC50 2 um); 3 µM in the assay on M. mycetomatis MM55 (MM55, replicate 3, read-out: IC50 3 um). Also, the 90% effect concentration (IC90) in the assay on M. mycetomatis MM55 (MM55, mean of replicates, read-out: IC90 mean) was 10.7 µM; in the assay with M. mycetomatis MM55 (MM55, replicate 1, read-out: IC90 1 um), 4.65 µM; in the assay on M. mycetomatis MM55 (MM55, replicate 2, read-out: IC90 2 um), 22.1 µM; in the assay on M. mycetomatis MM55 (MM55, replicate 3, read-out: IC90 3 um) it was 5.4 µM. The MIC50 in assay [3] (median MIC over ten M. mycetomatis isolates, no asterisk, read-out: MIC50) came out at 4 µM (≈ 1.27 µg/mL); in assay [3] (over the tested M. mycetomatis isolates, read-out: MIC50 mean), 4 µM (≈ 1.27 µg/mL). In addition, the MIC in assay [3] (isolate CBS247.48, read-out: MIC CBS247.48) was 4 µM (≈ 1.27 µg/mL); in assay [3] (isolate MM14, read-out: MIC MM14) it was 4 µM (≈ 1.27 µg/mL); in assay [3] (isolate MM45, read-out: MIC MM45) it was 4 µM (≈ 1.27 µg/mL); in assay [3] (isolate MM55, read-out: MIC MM55), 2 µM (≈ 0.635 µg/mL); in assay [3] (isolate P1, read-out: MIC P1) it was more than 16 µM; in assay [3] (isolate ParijsAl1, read-out: MIC ParijsAl1), 0.25 µM (≈ 0.0794 µg/mL). Also, the MIC turned out to be 16 µM (≈ 5.08 µg/mL) in assay [3] (isolate Peru72012, read-out: MIC Peru72012); 2 µM (≈ 0.635 µg/mL) in assay [3] (isolate So1, read-out: MIC So1); 2 µM (≈ 0.635 µg/mL) in assay [3] (isolate i1, read-out: MIC i1); 16 µM (≈ 5.08 µg/mL) in assay [3] (isolate i11, read-out: MIC i11). The “In vivo efficacy, Enhanced survival compared to control?” value in assay [4] was “no”. Moreover, the “In vivo efficacy, Larvae survival %” value in assay [4] stood at 11.1%.
As for `CNCC(=O)OCc1cccnc1N(C)C(=O)OC(C)[n+]1cnn(C[C@](O)(c2cc(F)ccc2F)[C@@H](C)c2nc(-c3ccc(C#N)cc3)cs2)c1` (stereo partly shown) [MMV1634494, Isavuconazonium, reference compound], the activity at 25 µM in assay [1] (setting [5]) is -2.78%; in assay [1] (setting [6]) it was -3.3%; in assay [1] (setting [7]), -6.46%; in assay [1] (setting [8]), 1.41%. Besides, the activity at 100 µM in assay [1] (setting [9]) was 7.96%; in assay [1] (setting [10]), 2.09%; in assay [1] (setting [11]), 14.1%; in assay [1] (setting [12]), 7.75%. In the assay on M. mycetomatis MM55, the “Drug static or cidal” value is given as “Cidal”. The IC50 in the assay with M. mycetomatis MM55 (setting [13]) is 0.04 µM; in the assay with M. mycetomatis MM55 (MM55, mean, read-out: IC50 mean), 0.63 µM; in the assay on M. mycetomatis MM55 (setting [14]) it was 0.35 µM; in the assay on M. mycetomatis MM55 (setting [16]), 0.75 µM; in the assay on M. mycetomatis MM55 (setting [18]), 0.79 µM. The IC90 came out at 1.08 µM in the assay with M. mycetomatis MM55 (MM55, read-out: IC90 mean); 0.68 µM with M. mycetomatis MM55 (setting [15]); 1.3 µM in the assay with M. mycetomatis MM55 (setting [17]); 1.26 µM with M. mycetomatis MM55 (setting [19]). Further, the “MIC50” value in assay [2] is 0.04 µM. Moreover, the “MIC range” value in assay [2] is less than 0.02 to 0.17 µM.
